Structures can show the parent of a compound that is named as a salt. Where two headings read alike, the source gives them in different places.
System: Toxoplasma gondii RH-2F tachyzoites
Assay: microbe, parasite or virus in culture
Settings: 72 h
[1] = read-out: Parasite inhibition (%) mean, preliminary screen of compound library, mean
[2] = read-out: Parasite inhibition (%) mean
[3] = read-out: Parasite inhibition (%) mean, preliminary screen, mean

Row | Structure (SMILES) | inhibition of growth at 5 µM [1] | inhibition of growth at 5 µM [3] | further results
1 | CN1C2=CC(=O)/C(=N\NC(N)=O)C=C2CC1S(=O)(=O)O (centres unmarked) [Carbazochrome sodium sulfonate] | 1.2% |  | 
2 | CO/N=C(\C(=O)N[C@@H]1C(=O)N2C(C(=O)OCOC(=O)C(C)(C)C)=C(/C=C\c3scnc3C)CS[C@H]12)c1csc(N)n1 [Cefditoren pivoxil] | 0.2% |  | 
3 | CO/N=C(\C(=O)N[C@@H]1C(=O)N2C(C(=O)O)=C(Cn3ccc(=N)n3CCO)CS[C@H]12)c1csc(N)n1 [Cefoselis sulfate] | 12.1% |  | 
4 | C/C=C(\C)C(=O)N[C@@H](c1ccccc1)[C@@H](O)C(=O)O[C@H]1C[C@@]2(O)[C@@H](OC(=O)c3ccccc3)[C@@H]3[C@]4(OC(C)=O)CO[C@@H]4C[C@H](O)[C@@]3(C)C(=O)[C@H](OC(C)=O)C(=C1C)C2(C)C [Cephalomannine] |  |  | inhibition of growth at 5 µM [2]: 22.4%
5 | Cc1cc(C2CCCCC2)n(O)c(=O)c1 [Ciclopirox (Penlac)] | 33.4% |  | 
6 | CCOC(=O)[C@H](CCc1ccccc1)N[C@H]1CCCN2CCC[C@H](C(=O)O)N2C1=O [Cilazapril monohydrate (Inhibace)] |  | 11.9% | 
7 | COc1cc(/C=C/C(=O)N2CCN(CC(=O)N3CCCC3)CC2)cc(OC)c1OC [Cinepazide maleate] | 1.5% |  | 
8 | COc1ccc(C[C@@H]2c3cc(OC)c(OC)cc3CC[N@+]2(C)CCC(=O)OCCCCCOC(=O)CC[N@@+]2(C)CCc3cc(OC)c(OC)cc3[C@H]2Cc2ccc(OC)c(OC)c2)cc1OC [Cisatracurium besylate (Nimbex)] |  | 4.5% | 
9 | CCCC(=O)OCOC(=O)C1=C(C)NC(C)=C(C(=O)OC)C1c1cccc(Cl)c1Cl (centres unmarked) [Cleviprex (Clevidipine)] |  | 23.8% | 
10 | COC(=O)[C@H](c1ccccc1Cl)N1CCc2sccc2C1 [Clopidogrel (Plavix)] |  |  | inhibition of growth at 5 µM [2]: -0.4%
11 | Cc1onc(-c2ccccc2Cl)c1C(=O)N[C@@H]1C(=O)N2[C@@H](C(=O)O)C(C)(C)S[C@@H]12 [Cloxacillin sodium (Cloxacap)] | 0.2% |  | 
12 | CC(C)c1nc(CN(C)C(=O)N[C@@H](CCN2CCOCC2)C(=O)N[C@H](CC[C@H](Cc2ccccc2)NC(=O)OCc2cncs2)Cc2ccccc2)cs1 [Cobicistat (GS-9350)] | 0.8% |  | 
13 | Cc1nc2c([nH]1)-c1ccccc1N(C(=O)c1ccc(NC(=O)c3ccccc3-c3ccccc3)cc1)CC2 [Conivaptan HCl (Vaprisol)] | 6.6% |  | 
14 | CC(=O)OCC(=O)[C@]1(O)CC[C@H]2[C@@H]3CCC4=CC(=O)CC[C@]4(C)[C@@H]3C(=O)C[C@@]21C [Cortisone acetate (Cortone)] | 44.8% |  | 
15 | N#CCNC(=O)c1ccc(-c2ccnc(Nc3ccc(N4CCOCC4)cc3)n2)cc1 [Cyt387] | 28.9% |  | 
16 | OC[C@@H](O)[C@@H](O)[C@H](O)[C@H](O)CO [D-Mannitol (Osmitrol)] | 0.2% |  | 
17 | CNC(=O)c1cc(Oc2ccc(NC(=O)Nc3cc(C(C)(C)C)nn3-c3ccc4ncccc4c3)c(F)c2)ccn1 [DCC-2036 (Rebastinib)] | 25.5% |  | 
18 | Cc1ccc2c(=O)c3cccc(CC(=O)O)c3oc2c1C [DMXAA (ASA404)] |  | -33.6% | 
19 | CN(C)/N=N/c1[nH]cnc1C(N)=O [Dacarbazine (DTIC-Dome)] |  | 5.8% | 
20 | CN(C)[C@@H](CCOc1cccc2ccccc12)c1ccccc1 [Dapoxetine HCl (Priligy)] |  | 0.8% | 
21 | CN(C)[C@@H](CCOc1cccc2ccccc12)c1ccccc1 [Dapoxetine hydrochloride (Priligy)] | -0.2% |  | 
22 | Cc1nc(Nc2ncc(C(=O)Nc3c(C)cccc3Cl)s2)cc(N2CCN(CCO)CC2)n1 [Dasatinib (BMS-354825)] |  | 10.5% | 
23 | O=C(O)c1ccc(-n2nc(-c3ccccc3O)nc2-c2ccccc2O)cc1 [Deferasirox (Exjade)] | -0.6% |  | 

Row | Structure (SMILES) | inhibition of growth at 5 µM [1] | inhibition of growth at 5 µM [3] | further results
24 | Cc1cccc(Cc2c[nH]cn2)c1C [Detomidine HCl] |  | 60.4% | 
25 | O=C[C@H](O)[C@@H](O)[C@H](O)[C@H](O)CO [Dextrose (D-glucose)] | -33.7% |  | 
26 | CCCCOc1cc(C(=O)NCCN(CC)CC)c2ccccc2n1 [Dibucaine (Cinchocaine) HCl] | 8.9% |  | 
27 | O=C(O)Cc1ccccc1Nc1c(Cl)cccc1Cl [Diclofenac Diethylamine] | -21.2% |  | 
28 | C[C@]12CCC3=C4CCC(=O)C=C4CC[C@H]3[C@@H]1CC[C@@]2(O)CC#N [Dienogest] |  | 12% | 
29 | COc1ccc([C@@H]2Sc3ccccc3N(CCN(C)C)C(=O)[C@@H]2OC(C)=O)cc1 [Diltiazem HCl (Tiazac)] | -15.8% |  | 
30 | O=S(=O)(O)CCSSCCS(=O)(=O)O [Dimesna] |  | -0.8% | 
31 | CCCC(CCC)C(=O)O [Divalproex sodium] |  | 1.4% | 
32 | C[C@@H](O)[C@H]1C(=O)N2C(C(=O)O)=C(S[C@@H]3CN[C@H](CNS(N)(=O)=O)C3)[C@H](C)[C@H]12 [Doripenem Hydrate] | 0.8% |  | 
33 | C=C1/C(=C/C=C2\CCC[C@@]3(C)[C@H]2CC[C@H]3[C@H](C)/C=C/[C@@H](C)C(C)C)C[C@H](O)C[C@@H]1O [Doxercalciferol (Hectorol)] | 0.1% |  | 
34 | CCCCc1oc2ccc(NS(C)(=O)=O)cc2c1C(=O)c1ccc(OCCCN(CCCC)CCCC)cc1 [Dronedarone HCl (Multaq)] | 2.5% |  | 
35 | N[C@H](C(=O)O)[C@H](O)c1ccc(O)c(O)c1 [Droxidopa (L-DOPS)] | 39.8% |  | 
36 | CN(NC(=O)CC(=O)NN(C)C(=S)c1ccccc1)C(=S)c1ccccc1 [Elesclomol] |  | 0.9% | 
37 | C[C@H](N[C@@H](CCc1ccccc1)C(=O)O)C(=O)N1CCC[C@H]1C(=O)O [Enalaprilat dihydrate] |  | 33.9% | 
38 | C=C1[C@H](CO)[C@@H](O)C[C@@H]1n1cnc2c(=O)[nH]c(N)nc21 [Entecavir hydrate] | 9.8% |  | 
39 | Oc1ccc([C@H]2COc3cc(O)ccc3C2)cc1 [Equol] | -5.6% |  | 
40 | COc1ccc2[nH]c([S+]([O-])Cc3ncc(C)c(OC)c3C)nc2c1 (centres unmarked) [Esomeprazole magnesium (Nexium)] |  | 1.6% | 
41 | COc1ccc2[nH]c([S+]([O-])Cc3ncc(C)c(OC)c3C)nc2c1 (centres unmarked) [Esomeprazole sodium (Nexium)] | 14.2% |  | 
42 | Cc1cc(C#N)cc(C)c1Oc1nc(Nc2ccc(C#N)cc2)nc(N)c1Br [Etravirine (TMC125)] | 0% |  | 
43 | Cc1nc(C(=O)NCC(=O)O)c(O)c2ccc(Oc3ccccc3)cc12 [FG-4592] |  | 1.3% | 
44 | CC(C(=O)[O][Ca][O]C(=O)C(C)c1cccc(Oc2ccccc2)c1)c1cccc(Oc2ccccc2)c1 (centres unmarked) [Fenoprofen calcium] | 27.4% |  | 
45 | Clc1ccc(C(Cn2ccnc2)OCc2ccc(Sc3ccccc3)cc2)c(Cl)c1 (centres unmarked) [Fenticonazole nitrate] | 19.8% |  | 
46 | CC(C)C(=O)Oc1ccc(CO)cc1[C@H](CCN(C(C)C)C(C)C)c1ccccc1 [Fesoterodine fumarate (Toviaz)] | 0.2% |  | 

Row | Structure (SMILES) | inhibition of growth at 5 µM [1] | inhibition of growth at 5 µM [3] | further results
47 | C[C@@H](C(=O)O)c1ccc(-c2ccccc2)c(F)c1 [Flurbiprofen (Ansaid)] | -23.7% |  | 
48 | C[C@@H](O[C@H]1OCCN(Cc2nn(P(=O)(O)O)c(=O)[nH]2)[C@H]1c1ccc(F)cc1)c1cc(C(F)(F)F)cc(C(F)(F)F)c1 [Fosaprepitant dimeglumine] | -2.8% |  | 
49 | CCC(=O)O[C@@H](OP(=O)(CCCCc1ccccc1)CC(=O)N1C[C@H](C2CCCCC2)C[C@H]1C(=O)O)C(C)C (some centres unmarked) [Fosinopril sodium (Monopril)] |  | 21.3% | 
50 | N[C@@H](CSCCCO)C(=O)O [Fudosteine] | 11% |  | 
51 | C[C@@H](Oc1cc(-n2cnc3ccc(CN4CCN(C)CC4)cc32)sc1C(N)=O)c1ccccc1C(F)(F)F [GSK461364] |  | 6.6% | 
52 | CC(C)c1noc(N2CCC(COc3ccc(-c4ccc(S(C)(=O)=O)cc4)nc3)CC2)n1 [GSK1292263] |  | 0.7% | 
53 | Cc1c(Cn2c(C)nc3c(C(=O)O)cc(N4CCOCC4)cc32)cccc1C(F)(F)F [GSK2636771] | 1.7% |  | 
54 | Cc1cc(SCc2sc(-c3ccc(C(F)(F)F)c(F)c3)nc2C)ccc1OCC(=O)O [GW0742] | 23.4% |  | 
55 | CC(C)c1onc(-c2c(Cl)cccc2Cl)c1COc1ccc(/C=C/c2cccc(C(=O)O)c2)c(Cl)c1 [GW4064] | -7.7% |  | 
56 | O=C(NCC1CCOCC1)c1cnc(Nc2ccc(Cl)cc2Cl)nc1C(F)(F)F [GW842166X] | -12% |  | 
57 | NCC1(CC(=O)O)CCCCC1 [Gabapentin HCl] |  | 1.7% | 
58 | Nc1ccn([C@@H]2O[C@H](CO)[C@@H](O)C2(F)F)c(=O)n1 [Gemcitabine (Gemzar)] |  | 0.1% | 
59 | C#C[C@]1(O)C=C[C@H]2[C@@H]3CCC4=CC(=O)CC[C@@H]4[C@H]3CC[C@@]21CC [Gestodene] |  | 0.6% | 
60 | COc1ccc(Cl)cc1C(=O)NCCc1ccc(S(=O)(=O)NC(=O)NC2CCCCC2)cc1 [Glyburide (Diabeta)] | 1.9% |  | 
61 | CN[C@@H]1C[C@@H](N)[C@H](O)[C@@H](O[C@@H]2O[C@H](CO)[C@H](O)[C@@H]3OC4(O[C@@H]23)O[C@H]([C@@H](N)CO)[C@H](O)[C@H](O)[C@@H]4O)[C@@H]1O (some centres unmarked) [Hygromycin B] | 40.4% |  | 
62 | COc1cc(C(C)=O)ccc1OCCCN1CCC(c2noc3cc(F)ccc23)CC1 [Iloperidone (Fanapt)] | 37.8% |  | 
63 | NC(=O)c1ccc(I)c([N+](=O)[O-])c1 [Iniparib (BSI-201)] |  | 2.4% | 
64 | CCn1c(=O)c2c(nc(/C=C/c3ccc(OC)c(OC)c3)n2C)n(CC)c1=O [Istradefylline (KW-6002)] | -1.9% |  | 
65 | c1ccc2c(CCNc3ccc(Nc4ccncc4)cc3)c[nH]c2c1 [JNJ 26854165 (Serdemetan)] |  | 48.9% | 
66 | CN1CCN(C(=O)c2cc3cc(Cl)ccc3[nH]2)CC1 [JNJ-7777120] | 67.4% |  | 
67 | COc1ccc(CCC(=O)Nc2nc3ccc(Cl)cc3s2)cc1OC [KY02111] | -12.8% |  | 
68 | COC(=O)CCSCc1ccc(-c2onc(C)c2NC(=O)OC(C)c2ccccc2Cl)cc1 (centres unmarked) [Ki16198] | 1.4% |  | 
